According to US20230141101A1, “PDE4 INHIBITOR COMPOUND AND MEDICAL USE THEREOF” (Suzhou Longbotai Pharmaceuticals Co., Ltd., priority 2020, published 2023):

Legend:
Type in all cases: biochemical
Details in all cases: 20 nM
[1] = target: T1, PDE4A1A (Homo sapiens, UniProt P27815); assay: PDE4 inhibitory activity assay (FAM-cAMP enzymatic reaction), PDE4A1A
T1 construct: purchased BPS 60040
Outline: (§1)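 Human PDE4A1A, PDE4B1 or PDE4D2 preincubated with compound 15 min at room temperature, then FAM-cAMP substrate added; reaction 30 min at room temperature before stop solution and further 60 min. Fluorescence read on multilabel counter; IC50 fitted from inhibition rates.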

[2] = target: T2, PDE4B1 (Homo sapiens, UniProt Q07343); assay: PDE4 inhibitory activity assay (FAM-cAMP enzymatic reaction), PDE4B1
T2 construct: purchased BPS 60041
T2 sequence (Q07343 whole entry): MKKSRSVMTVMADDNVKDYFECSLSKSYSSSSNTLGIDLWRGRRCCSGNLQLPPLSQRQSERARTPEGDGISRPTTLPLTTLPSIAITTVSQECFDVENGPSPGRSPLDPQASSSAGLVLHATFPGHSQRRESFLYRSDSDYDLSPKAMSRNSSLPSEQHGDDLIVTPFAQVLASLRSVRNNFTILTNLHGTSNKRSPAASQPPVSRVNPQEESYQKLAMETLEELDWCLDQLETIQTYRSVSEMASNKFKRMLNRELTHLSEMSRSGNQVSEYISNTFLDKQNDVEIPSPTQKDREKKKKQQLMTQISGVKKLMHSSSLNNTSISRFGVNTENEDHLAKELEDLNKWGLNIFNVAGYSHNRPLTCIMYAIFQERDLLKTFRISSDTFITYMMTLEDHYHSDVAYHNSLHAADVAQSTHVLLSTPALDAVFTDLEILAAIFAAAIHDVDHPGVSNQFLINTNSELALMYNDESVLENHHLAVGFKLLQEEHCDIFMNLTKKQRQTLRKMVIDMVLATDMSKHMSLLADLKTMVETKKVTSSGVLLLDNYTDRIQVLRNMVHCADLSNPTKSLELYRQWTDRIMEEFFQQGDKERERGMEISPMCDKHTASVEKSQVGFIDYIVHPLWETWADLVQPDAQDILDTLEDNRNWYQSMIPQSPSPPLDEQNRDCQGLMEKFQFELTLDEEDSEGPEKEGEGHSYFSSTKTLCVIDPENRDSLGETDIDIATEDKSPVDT
Outline: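 Each isoform is incubated with test compound for 15 min at room temperature before FAM-cAMP substrate starts a 30-min reaction.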

[3] = target: PDE4D2 (Homo sapiens, UniProt Q08499); assay: PDE4 inhibitory activity assay (FAM-cAMP enzymatic reaction), PDE4D2
Sequence of PDE4D2 (Q08499 303-809): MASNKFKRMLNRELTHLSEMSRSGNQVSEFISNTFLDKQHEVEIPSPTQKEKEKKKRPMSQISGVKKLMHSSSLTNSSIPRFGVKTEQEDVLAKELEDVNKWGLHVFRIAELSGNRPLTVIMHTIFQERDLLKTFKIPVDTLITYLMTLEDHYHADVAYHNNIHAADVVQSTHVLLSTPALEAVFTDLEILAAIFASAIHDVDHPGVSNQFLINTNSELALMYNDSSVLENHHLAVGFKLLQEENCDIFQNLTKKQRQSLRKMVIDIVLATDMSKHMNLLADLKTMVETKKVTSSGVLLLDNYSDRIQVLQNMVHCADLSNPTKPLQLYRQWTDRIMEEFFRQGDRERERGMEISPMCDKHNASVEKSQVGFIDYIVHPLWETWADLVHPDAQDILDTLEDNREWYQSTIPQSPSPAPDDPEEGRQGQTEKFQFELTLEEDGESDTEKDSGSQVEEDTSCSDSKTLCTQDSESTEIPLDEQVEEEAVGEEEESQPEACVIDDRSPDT
Outline: as §1

T1 sequence (P27815 1-647 isoform P27815-4): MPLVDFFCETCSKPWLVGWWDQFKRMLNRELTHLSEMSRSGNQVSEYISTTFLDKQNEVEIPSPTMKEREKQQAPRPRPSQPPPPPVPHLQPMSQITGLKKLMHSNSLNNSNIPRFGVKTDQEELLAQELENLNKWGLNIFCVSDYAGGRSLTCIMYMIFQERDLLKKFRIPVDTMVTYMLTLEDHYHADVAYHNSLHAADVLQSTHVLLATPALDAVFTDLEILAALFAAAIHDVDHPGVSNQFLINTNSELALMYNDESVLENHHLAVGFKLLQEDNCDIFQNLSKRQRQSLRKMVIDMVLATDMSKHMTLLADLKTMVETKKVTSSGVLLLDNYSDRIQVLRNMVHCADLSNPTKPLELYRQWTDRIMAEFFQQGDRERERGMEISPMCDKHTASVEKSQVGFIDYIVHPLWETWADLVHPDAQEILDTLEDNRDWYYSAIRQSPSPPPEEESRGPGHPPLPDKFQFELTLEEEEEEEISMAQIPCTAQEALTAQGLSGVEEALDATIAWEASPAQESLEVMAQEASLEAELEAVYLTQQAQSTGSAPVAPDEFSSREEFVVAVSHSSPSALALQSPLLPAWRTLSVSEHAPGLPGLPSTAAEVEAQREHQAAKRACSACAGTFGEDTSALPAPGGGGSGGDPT

Compound	PDE4 A1 inhibitory effect at 20 nM [1]	PDE4 B1 inhibitory effect at 20 nM [2]	PDE4 D2 inhibitory effect at 20 nM [3]
CCOc1nc([C@@H](CS(C)(=O)=O)n2c(=O)n(CC(F)(F)F)c3c(C)c(-c4ccccc4)cnc32)ccc1OC [Ex. 53, (S)-3-(1-(6-ethoxy-5-methoxypyridin-2-yl)-2-(methylsulfonyl)ethyl)-7-methyl-6-phenyl-1-(2,2,2-trifluoroethyl)-1H-imidazo[4,5-b]pyridin-2(3H)-one]	+	+	+
CCOc1nc([C@@H](CS(C)(=O)=O)n2c(=O)[nH]c3cc(-c4ccccc4CC)cnc32)ccc1OC [Ex. 81, (S)-3-(1-(6-ethoxy-5-methoxypyridin-2-yl)-2-(methylsulfonyl)ethyl)-6-(2-ethylphenyl)-1H-imidazo[4,5-b]pyridin-2(3H)-one]	+	+	+
CCOc1nc([C@@H](CS(C)(=O)=O)n2c(=O)[nH]c3cc(-c4cc(F)ccc4F)ccc32)ccc1OC [Ex. 160, (S)-5-(2,5-difluorophenyl)-1-(1-(6-ethoxy-5-methoxypyridin-2-yl)-2-(methylsulfonyl)ethyl)-1H-benzo[d]imidazol-2(3H)-one]	+	+	+
CCOc1nc([C@@H](CS(C)(=O)=O)n2c(=O)[nH]c3cc(-c4ccc(C)cc4C)cnc32)ccc1OC [Ex. 99, (S)-6-(2,4-dimethylphenyl)-3-(1-(6-ethoxy-5-methoxypyridin-2-yl)-2-(methylsulfonyl)ethyl)-1H-imidazo[4,5-b]pyridin-2(3H)-one]	+	+	+
CCOc1nc([C@@H](CS(C)(=O)=O)n2c(=O)n(C)c3cc(-c4cc(F)c(F)cc4F)cnc32)ccc1OC [Ex. 97, (S)-6-(2,4,5-trifluorophenyl)-3-(1-(6-ethoxy-5-methoxypyridin-2-yl)-2-(methylsulfonyl)ethyl)-1-methyl-1H-imidazo[4,5-b]pyridin-2(3H)-one]	+	+	+
CCOc1nc([C@@H](CS(C)(=O)=O)n2c(=O)[nH]c3cc(-c4cccc(F)c4C)cnc32)ccc1OC [Ex. 111, (S)-6-(3-fluoro-2-methylphenyl)-3-(1-(6-ethoxy-5-methoxypyridin-2-yl)-2-(methylsulfonyl)ethyl)-1H-imidazo[4,5-b]pyridin-2(3H)-one]	+	+	+
CCOc1nc([C@@H](CS(C)(=O)=O)n2c(=O)n(C)c3cc(-c4cccc(C)c4C)ccc32)ccc1OC [Ex. 167, (S)-5-(2,3-dimethylphenyl)-1-(1-(6-ethoxy-5-methoxypyridin-2-yl)-2-(methylsulfonyl)ethyl)-3-methyl-1H-benzo[d]imidazol-2(3H)-one]	+	+	+
CCOc1nc([C@@H](CS(C)(=O)=O)n2c(=O)n(C)c3cc(-c4ccccc4CC)ccc32)ccc1OC [Ex. 151, (S)-1-(1-(6-ethoxy-5-methoxypyridin-2-yl)-2-(methylsulfonyl)ethyl)-5-(2-ethylphenyl)-3-methyl-1H-benzo[d]imidazol-2(3H)-one]	+	+	+
CCOc1nc([C@@H](CS(C)(=O)=O)n2c(=O)n(CC)c3c(C)c(-c4ccccc4C)cnc32)ccc1OC [Ex. 50, (S)-3-(1-(6-ethoxy-5-methoxypyridin-2-yl)-2-(methylsulfonyl)ethyl)-1-ethyl-7-methyl-6-(o-methylphenyl)-1H-imidazo[4,5-b]pyridin-2(3H)-one]	+	+	+
CCOc1nc([C@H](CS(C)(=O)=O)n2c(=O)[nH]c3cc(-c4ccccc4OC)ccc32)ccc1OC [Ex. 145, (R)-1-(1-(6-ethoxy-5-methoxypyridin-2-yl)-2-(methylsulfonyl)ethyl)-5-(2-methoxyphenyl)-1H-benzo[d]imidazol-2(3H)-one]	−	−	−
CCOc1nc([C@H](CS(C)(=O)=O)n2c(=O)n(CC(F)(F)F)c3c(C)c(-c4ccccc4)cnc32)ccc1OC [Ex. 54, (R)-3-(1-(6-ethoxy-5-methoxypyridin-2-yl)-2-(methylsulfonyl)ethyl)-7-methyl-6-phenyl-1-(2,2,2-trifluoroethyl)-1H-imidazo[4,5-b]pyridin-2(3H)-one]	−	−	−
CCOc1nc([C@@H](CS(C)(=O)=O)n2c(=O)n(C)c3cc(-c4ccccc4C(F)(F)F)cnc32)ccc1OC [Ex. 86, (S)-3-(1-(6-ethoxy-5-methoxypyridin-2-yl)-2-(methylsulfonyl)ethyl)-6-(2-(trifluoromethyl)phenyl)-1-methyl-1H-imidazo[4,5-b]pyridin-2(3H)-one]	+	+	+
CCOc1nc([C@@H](CS(C)(=O)=O)n2c(=O)[nH]c3c(C)c(-c4ccccc4C(F)(F)F)cnc32)ccc1OC [Ex. 14, (S)-3-(1-(6-ethoxy-5-methoxypyridin-2-yl)-2-(methylsulfonyl)ethyl)-7-methyl-6-(2-(trifluoromethyl)phenyl)-1H-imidazo[4,5-b]pyridin-2(3H)-one]	+	+	=
CCOc1nc(C(CS(C)(=O)=O)N2C(=O)c3csc([N+](=O)[O-])c3C2=O)ccc1OC (stereo not drawn) [Ex. 221, 5-(1-(6-ethoxy-5-methoxypyridin-2-yl)-2-(methylsulfonyl)ethyl)-1-nitro-4H-thieno[3,4-c]pyrrol-4,6(5H)-dione]	+	+	+
CCOc1nc([C@@H](CS(C)(=O)=O)n2c(=O)n(C)c3cc(-c4ccccc4)ccc32)ccc1OC [Ex. 131, (S)-1-(1-(6-ethoxy-5-methoxypyridin-2-yl)-2-(methylsulfonyl)ethyl)-5-phenyl-3-methyl-1H-benzo[d]imidazol-2(3H)-one]	+	+	+
CCOc1nc([C@@H](CS(C)(=O)=O)n2c(=O)n(C)c3cc(-c4ccc(C)cc4F)ccc32)ccc1OC [Ex. 180, (S)-5-(2-fluoro-4-methylphenyl)-1-(1-(6-ethoxy-5-methoxypyridin-2-yl)-2-(methylsulfonyl)ethyl)-3-methyl-1H-benzo[d]imidazol-2(3H)-one]	+	+	+
CCOc1nc([C@H](CS(C)(=O)=O)n2c(=O)[nH]c3c(C)c(-c4cccc(F)c4F)cnc32)ccc1OC [Ex. 26, (R)-6-(2,3-difluorophenyl)-3-(1-(6-ethoxy-5-methoxypyridin-2-yl)-2-(methylsulfonyl)ethyl)-7-methyl-1H-imidazo[4,5-b]pyridin-2(3H)-one]	−	−	−
CCOc1nc([C@@H](CS(C)(=O)=O)n2c(=O)[nH]c3c(C)c(-c4ccccn4)cnc32)ccc1OC [Ex. 17, (S)-3-(1-(6-ethoxy-5-methoxypyridin-2-yl)-2-(methylsulfonyl)ethyl)-7-methyl-6-(pyridin-2-yl)-1H-imidazo[4,5-b]pyridin-2(3H)-one]	+	+	=
CCOc1nc([C@H](CS(C)(=O)=O)n2c(=O)[nH]c3cc(-c4ccccc4C)ccc32)ccc1OC [Ex. 141, (R)-1-(1-(6-ethoxy-5-methoxypyridin-2-yl)-2-(methylsulfonyl)ethyl)-5-(o-methylphenyl)-1H-benzo[d]imidazol-2(3H)-one]	+	+	+
CCOc1nc([C@@H](CS(C)(=O)=O)n2c(=O)n(C)c3cc(-c4cc(F)ccc4C)cnc32)ccc1OC [Ex. 110, (S)-6-(5-fluoro-2-methylphenyl)-3-(1-(6-ethoxy-5-methoxypyridin-2-yl)-2-(methylsulfonyl)ethyl)-1-methyl-1H-imidazo[4,5-b]pyridin-2(3H)-one]	+	+	+
CCOc1nc([C@@H](CS(C)(=O)=O)n2c(=O)[nH]c3cc(Br)ccc32)ccc1OC [Ex. 129, (S)-5-bromo-1-(1-(6-ethoxy-5-methoxypyridin-2-yl)-2-(methylsulfonyl)ethyl)-1H-benzo[d]imidazol-2(3H)-one]	+	+	+
